Assay results published in patent publication US20240409584A1, “PEPTIDE HAVING ANTI-AGING ACTIVITY, AND USE THEREOF” (CAREGEN CO., LTD., priority 2021, published 2024).

Experiments:
Col1a1 = Col1a1 (collagen) gene expression in fibroblasts, RT-PCR; type: cell-based, mouse; settings: NIH3T3 cells, peptide 10, 50, 100 μM, 24 hours, serum free DMEM; FIGS. 1A, 1B
Experimental: (§1) First, NIH3T3 cells (mouse fibroblast cell line) were seeded in a 6-well plate at a cell density of 3×10^5 cell/well, and then the cells were cultured in DMEM medium containing 10% fetal bovine serum (FBS) for 24 hours. The cultured cells were washed once with serum free DMEM medium, and the peptide of the present invention was mixed in 1 mL of the serum free DMEM medium at each of concentrations of 10, 50, and 100 μM, and dispensed into the cells. A positive control (PC) was treated with 5 ng/ml of TGF-B instead of the above peptide. The cells were cultured in a CO: incubator at 37° C. for 24 hours.
(§2) The cultured cells were washed twice with PBS, and RNA was extracted from the cells using easy blue (iNtRON, Cat. No.: 17061, Korea). The amount of RNA extracted was quantified, 1, 000 ng of RNA was added per tube, and RT reaction was performed using a kit (enzynomics, Cat. No.: PT200, Korea). RT-PCR was performed using a PCR kit (enzynomics, Cat. No.: P581T, Korea). The sequences of the primers of collagen, fibronectin, and elastin used in RT-PCR and the sequence of the primer of GAPDH used to compare the total RNA amount of each treatment group are shown in [Table 2].

fibronectin [1] = test: Fibronectin gene expression in fibroblasts, RT-PCR; type: cell-based, mouse; settings: NIH3T3 cells, peptide 10, 50, 100 μM, 24 hours, serum free DMEM; FIGS. 1A, 1C
Experimental: as §1, §2

elastin = test: Elastin gene expression in fibroblasts, RT-PCR; type: cell-based, mouse; settings: NIH3T3 cells, peptide 10, 50, 100 μM, 24 hours, serum free DMEM; FIGS. 1A, 1D
Experimental: as §1, §2

AQP3 = AQP3 gene expression in keratinocytes, RT-PCR; type: cell-based; settings: HaCaT cells, peptide 10, 50, 100 μM, 24 hours; FIGS. 2A, 2B
Experimental: (§3) First, HaCaT cells were seeded in a 6-well plate at a cell density of 3×10^5 cell/well, and then the cells were cultured in DMEM medium containing 10% fetal bovine serum (FBS) for 24 hours. The cultured cells were washed once with serum free DMEM medium, and then the peptide of the present invention was mixed in 1 mL of the serum free DMEM medium at each of concentrations of 10, 50, and 100 μM, and dispensed into the cells. A positive control (PC) was treated with 100 nM of EGF instead of the above peptide. The cells were cultured in a CO: incubator at 37° C. for 24 hours.
(§4) The cultured cells were washed twice with PBS, and then RNA was extracted from the cells using easy blue (iNtRON, Cat. No.: 17061, Korea). The extracted RNA was subjected to RT reaction using a kit (enzynomics, Cat. No.: RT200, Korea). Thereafter, RT-PCR was performed using a PCR kit (enzynomics, Cat. No.: R581T, Korea). The sequences of the primers of AQP3 and SIRT1 used in RT-PCR and the sequence of the primer of GAPDH used to compare the total RNA amount of each treatment group are shown in [Table 2].

SIRT1 = SIRT1 gene expression in keratinocytes, RT-PCR; type: cell-based; settings: HaCaT cells, peptide 10, 50, 100 μM, 24 hours; FIGS. 2A, 2C
Experimental: as §3, §4

NIH3T3 cells = test: Intracellular ROS increased by UVA irradiation, DCFH-DA/FACS; type: cell-based, mouse; settings: 8 J/cm^2 UVA, peptide 10, 50, 100 μM, 24 hours after irradiation, FIG. 3A
Experimental: as §3, with “First, NIH3T3 cells and” for “First,”, “5×10^5” for “3×10^5”, “cell/well, respectively,” for “cell/well,”, “50 μM” for “100 nM”, “Trolox” for “EGF”, “peptide.” for “peptide. The cells were cultured in a CO: incubator at 37° C. for 24 hours.”
(§5) The cells were cultured in a CO2 incubator at 37° C. for 1 hour. The medium of the cultured cells was transferred to a tube, 1 ml of PBS was added, and then the NIH3T3 cells were irradiated with 8 J/cm^2 of UVA and the HaCaT cells were irradiated with 15 mJ/cm^2 of UVB using a UV irradiator (VILBER LOURMAT, Cat No.: 3102-BSU, France). After removing PBS, 900 μL of the medium transferred to the tube was dispensed, and culture was performed in a CO2 incubator at 37° C. for 24 hours. After treatment with 10 μM of dichloro-dihydro-fluorescein diacetate (DCFH-DA), wrapping with a foil was performed, and culture was performed in a CO2 incubator at 37° C. for 30 minutes. […] After centrifugation, the cells were washed with PBS, and a fluorescence value was measured through FACS.

HaCaT cells = test: Intracellular ROS increased by UVB irradiation, DCFH-DA/FACS; type: cell-based; settings: 15 mJ/cm^2 UVB, peptide 10, 50, 100 μM, 24 hours after irradiation, FIG. 3B
Experimental: as §3, with “First, NIH3T3 cells and” for “First,”, “5×10^5” for “3×10^5”, “cell/well, respectively,” for “cell/well,”, “50 μM” for “100 nM”, “Trolox” for “EGF”, “peptide.” for “peptide. The cells were cultured in a CO: incubator at 37° C. for 24 hours.”
as §5

Colla1 = test: Col1a1 gene expression decreased by UV in fibroblasts, RT-PCR; type: cell-based, mouse; settings: NIH3T3 cells, 6 J/cm^2 UVA, peptide 10, 50, 100 μM, 6 hours after irradiation; FIGS. 4A, 4B
Experimental: (§6) First, NIH3T3 cells were seeded in a 6-well plate at a cell density of 5×10^5 cell/well, and then the cells were cultured in DMEM medium containing 10% fetal bovine serum (FBS) for 24 hours. The cultured cells were washed once with serum free DMEM medium, and then the peptide of the present invention was mixed in 1 mL of the serum free DMEM medium at each of concentrations of 10, 50, and 100 μM, and dispensed into the cells. A positive control (PC) was treated with 2.5 mM of N-acetylcysteine or 50 μM of Trolox instead of the above peptide. The cells were cultured in a CO: incubator at 37° C. for 1 hour.
(§7) The medium of the cultured cells was transferred to a tube (e-tube), 1 ml of PBS was added, and irradiation was performed with 6 J/cm^2 of UVA using a UV irradiator (VILBER LOURMAT, Cat No.: 3102-BSU, France). After removing PBS, 900 μL of the medium transferred to the tube was dispensed, and culture was performed in a CO2 incubator at 37° C. for 6 hours. The cultured cells were washed twice with PBS, and then RNA was extracted from the cells using easy blue (iNtRON, Cat. No.: 17061, Korea). The amount of RNA extracted was quantified, 1,000 ng of RNA was added per tube, and RT reaction was performed using a kit (enzynomics, Cat. No.: RT200, Korea). Thereafter, RT-PCR was performed using a PCR kit (enzynomics, Cat. No.: R581T, Korea). […]

fibronectin [2] = test: Fibronectin gene expression decreased by UV in fibroblasts, RT-PCR; type: cell-based, mouse; settings: NIH3T3 cells, 6 J/cm^2 UVA, peptide 10, 50, 100 μM, 6 hours after irradiation; FIGS. 4A, 4C
Experimental: as §6, §7

MMP-1 [3] = test: MMP-1 expression increased by UV in fibroblasts, western blot; type: cell-based, mouse; settings: NIH3T3 cells, 6 J/cm^2 UVA, peptide 10, 50, 100 μM, 24 hours after irradiation; FIG. 5A
Experimental: (§8) First, NIH3T3 cells and HaCaT cells were seeded in a 6-well plate at a cell density of 5×10^5 cell/well, respectively, and then the cells were cultured in DMEM medium containing 10% fetal bovine serum (FBS) for 24 hours. The cultured cells were washed once with serum free DMEM medium, and the peptide of the present invention was mixed in 1 mL of the serum free DMEM medium at each of concentrations of 10, 50, and 100 μM, and dispensed into the cells. A positive control (PC) was treated with 25 and 50 µM of Trolox instead of the above peptide.
(§9) The cells were cultured in a CO2 incubator at 37° C. for 1 hour. The medium of the cultured cells was transferred to a tube (e-tube), 1 ml of PBS was added, and then the NIH3T3 cells were irradiated with 6 J/cm^2 of UVA and the HaCaT cells were irradiated with 15 mJ/cm^2 of UVB using a UV irradiator (VILBER LOURMAT, Cat No.: 3102-BSU, France). After removing PBS, 900 μL of the medium transferred to the tube was added, and culture was performed in a CO2 incubator at 37° C. for 24 hours. The medium of the cultured cells was transferred to a tube, the cells were washed twice with PBS, and then a cell lysis buffer was added to lyse the cells. A sample was prepared by treating the cells with 5× sample buffer, and then SDS-PAGE was performed using 10% SDS-PAGE gel. The proteins isolated through SDS-PAGE were transferred to a PVDF membrane. […]

MMP-1 [4] = test: MMP-1 expression increased by UV in keratinocytes, western blot; type: cell-based; settings: HaCaT cells, 15 mJ/cm^2 UVB, peptide 10, 50, 100 μM, 24 hours after irradiation; FIG. 5B
Experimental: as §8, §9

MMP-2 = MMP-2 activity increased by UV in fibroblasts, gelatin zymography; type: cell-based, mouse; settings: fibroblasts (NIH3T3), 6 J/cm^2 UVA, peptide 10, 50, 100 μM, 6 hours after irradiation; FIG. 6A
MMP-9 = MMP-9 activity increased by UV in keratinocytes, gelatin zymography; type: cell-based; settings: keratinocytes (HaCaT), 15 mJ/cm^2 UVB, peptide 10, 50, 100 μM, 6 hours after irradiation; FIG. 6B

## DSSPLRSPSYAS [SEQ ID NO: 1]
Col1a1
  expression of the collagen gene: gradually increased as a concentration of the peptide increased
Fibronectin [1]
  expression of the fibronectin gene: gradually increased as a concentration of the peptide increased
elastin
  expression of the elastin gene: gradually increased as a concentration of the peptide increased
AQP3
  mRNA level of AQP3: increased
SIRT1
  mRNA level of SIRT1: increased
NIH3T3 cells
  intracellular reactive oxygen species level increased by UV irradiation: decreased
HaCaT cells
  intracellular reactive oxygen species level increased by UV irradiation: decreased
Colla1
  mRNA level of Colla1 decreased by UV irradiation: increased again
Fibronectin [2]
  mRNA level of fibronectin decreased by UV irradiation: increased again
MMP-1 [3]
  expression of MMP-1 increased by UV irradiation: inhibited
MMP-1 [4]
  expression of MMP-1 increased by UV irradiation: inhibited
MMP-2
  activity of MMP-2 protein increased by ultraviolet rays: inhibited
MMP-9
  activity of MMP-9 protein increased by ultraviolet rays: inhibited
